Experimental findings from EP4620962A1, “PEPTIDE HAVING ACTIVITIES TO PROMOTE HAIR GROWTH AND AMELIORATE DAMAGED HAIR, AND USE THEREOF” (Caregen Co., Ltd., priority 2022, dated 2025) are described below.

One assay has as its system ERF and AKT. Put plainly: Western blot of proliferation-related factors (phospho-AKT, phospho-ERK) in hair follicle dermal papilla cells. The class given is cell-based, human. As to conditions: 5 µM, or 50 µM, 24 hours, FIGS. 3 and 4. As for the experimental part: In this experimental example, effects of a peptide according to an embodiment on activation of factors related to proliferation of human hair follicle dermal papilla cells were examined. Specifically, human hair follicle dermal papilla cells were seeded on a 6-well plate at a density of 4×10^5 cells/well, followed by incubation in a mesenchymal stem cell complete medium for 24 hours. Thereafter, a peptide according to an embodiment was aliquoted thereinto at a concentration of […], 5 µM, or 50 µM, followed by incubation for 24 hours at 37 °C. Then, the culture was washed with PBS, and 100 µL of a lysis buffer to prepare a cell lysate. Subsequently, bicinchoninic acid (BCA) was quantified to prepare an equal amount of a protein sample, followed by electrophoresis using a 10 % SDS-PAGE gel. Thereafter, proteins separated by the SDS-PAGE were transferred to a PVDF membrane, and the reaction was blocked using a 5 % skim milk at room temperature for 30 minutes. Then, phospho-AKT and phospho-ERK (cell signaling, USA) antibodies were diluted in a 3 % BSA at 1:1000 and reacted with the blocked PVDF membrane at 4 °C for 16 hours. Subsequently, the reactants were washed with 0.1 % PBS-T (0.1 % Tween-20 in PBS) three times each for 15 minutes and reacted for 1 hour with a secondary antibody diluted with 5 % skim milk at 1:2000. […]

The subject of a further assay is DKK-1 (Dickkopf-1). The assay can be described thus: DKK-1 expression (Western blot) in DHT-treated hair follicle dermal papilla cells. It counts as cell-based, human. As to conditions: dihydrotestosterone (DHT) added; 5 µM, or 50 µM; FIGS. 9 and 10.
A further assay deals with beta-catenin. Put plainly: Nuclear beta-catenin Western blot in hair follicle dermal papilla cells. As to conditions: nuclear proteins, HDAC1 as nuclear marker, FIGS. 5 and 6. It counts as cell-based, human. As for the experimental part:
In this experimental example, effects of a peptide according to an embodiment on proliferation mechanism of human hair follicle dermal papilla cells were examined. Specifically, human hair follicle dermal papilla cells were incubated in the same manner as in Experimental Example 2-2, and treated with a peptide according to an embodiment. Then, nuclear proteins were isolated from the culture by using a nuclear protein extraction kit (Thermo scientific, USA). Subsequently, expression levels of proteins were examined in the same manner as in Experimental Example 2-2 by using beta-catenin (cell signaling, USA) and HDAC1 (santa cruz, USA) antibodies. Meanwhile, a untreated group was used as a control, and a group treated with 10 ng/mL recombinant human Wnt-3a protein (rhWnt-3a, R&D systems (USA, MN)) was used as a positive control.

The subject of assay [1] is Ha3-II, Keratin 5, Keratin 14, and Keratin 19 in human hair outer root sheath cells (HHORSCs). The assay can be described thus: RT-PCR of activators of outer root sheath cells. The class given is cell-based. As to conditions: RNA level; 5 µM, or 50 µM, 24 hours; FIGS. 11 and 12. How it is done: In this experimental example, effects of a peptide according to an embodiment on expression of type I cuticular Ha3-II (Ha3-II), Keratin 5, Keratin 14, and Keratin 19, which are cytokine related to activation of human hair outer root sheath cells (HHORSCs), were examined. Specifically, human hair outer root sheath cells were seeded on a 6-well plate at a density of 4×10^5 cell/well, followed by incubation for 24 hours in a mesenchymal stem cell complete media. Subsequently, the culture medium was replaced with a serum free mesenchymal stem cell complete medium, followed by incubation for 24 hours. Thereafter, a peptide according to an embodiment was aliquoted thereinto at a concentration of […], 5 µM, or 50 µM, followed by incubation for 24 hours at 37 °C. Then, gene expression was examined in the RNA level in the same manner as in Experimental Example 2-3 by using primers of Table 3 below. Meanwhile, a untreated group was used as a control, and a group treated with 50 nM EGF was used as a positive control.

Assay [2] deals with LEF-1, c-Myc, and cyclin D1. The assay can be described thus: RT-PCR of beta-catenin downstream target genes in hair follicle dermal papilla cells. The class given is cell-based, human. As to conditions: RNA level, FIG. 7 (Peptide-1: c-Myc, cyclin D1), FIG. 8 (Peptide-2: LEF-1, c-Myc, cyclin D1). How it is done: In addition, a change in expression levels of lymphoid enhancer-binding factor-1 (LEF-1), c-Myc, and cyclin D1, which are downstream target genes of activating mechanism of beta-catenin, was examined. To this end, human hair follicle dermal papilla cells were incubated in the same manner in Experimental Example 2-2 and treated with a peptide according to an embodiment. Thereafter, the culture was washed with PBS and treated with 300 µL of easy blue (intron, Korea) to extract RNAs. Then, the extract RNAs were quantified by Nano drop, and cDNA was synthesized by using the RNAs as a template and using a cDNA synthesis kit (enzynomics, Korea). Then, polymerase chain reaction (PCR) was carried out using primers of Table 2 below and a PCR premix (enzynomics, Korea), followed by electrophoresis using a 1.5 % agarose gel, and gene expression was examined in the RNA level by a Bio-Rad gel image system.

The subject of assay [3] is human hair follicle dermal papilla cells (HFDPCs). The assay can be described thus: Proliferation of hair follicle dermal papilla cells (MTT). It counts as cell-based. As to conditions: 5 µM, or 50 µM, 72 hours, absorbance at 540 nm, FIGS. 1 and 2. As for the experimental part: In this experimental example, effects of a peptide according to an embodiment on proliferation of human hair follicle dermal papilla cells were examined by evaluating a change in viability of the human hair follicle dermal papilla cells (HFDPCs). Specifically, human hair follicle dermal papilla cells were seeded on a 96-well plate at a density of 4×10^3 cells/well, followed by incubation in a mesenchymal stem cell complete medium for 24 hours. Subsequently, the culture medium was replaced with a serum free mesenchymal stem cell complete medium, followed by incubation for 24 hours. Thereafter, a peptide according to an embodiment was aliquoted thereinto at a concentration of […], 5 µM, or 50 µM, followed by incubation for 72 hours at 37 °C. Then, the culture was washed with PBS, and 10 µL of a 5 mg/ml MTT solution was aliquoted into each well. After incubating the culture in a CO2 incubator for 4 hours, the culture medium was removed, and 100 µL of dimethyl sulfoxide (DMSO) was added thereto, followed by stirring for 10 minutes. Thereafter, absorbance was measured at a wavelength of 540 nm by using a spectrophotometer. Meanwhile, a untreated group was used as a control, and a group treated with 1 µM EGF was used as a positive control.

The test system of assay [4] is HOXC13, MSX2, and FOXN1 in human hair germinal matrix cells (HHGMCs). Put plainly: RT-PCR of activators of germinal matrix cells. As to conditions: RNA level; 5 µM, or 50 µM, 24 hours; FIGS. 13 and 14. It counts as cell-based. How it is done:
In this experimental example, effects of a peptide according to an embodiment on expression of Homeobox protein Hox-C13 (HOXC13), Msh homeobox 2 (MSX2), and Forkhead box protein N1 (FOXN1), which are transcription factors related to activation of human hair germinal matrix cells ([…]), were examined. Specifically, human hair germinal matrix cells were seeded on a 6-well plate at a density of 4×10^5 cell/well, followed by incubation for 24 hours in a mesenchymal stem cell complete medium. Subsequently, the culture medium was replaced with a serum free mesenchymal stem cell complete medium, followed by incubation for 24 hours. Thereafter, a peptide according to an embodiment was aliquoted thereinto at a concentration of […], 5 μM, or 50 μM, followed by incubation for 24 hours at 37 °C. Then, gene expression was examined in the RNA level in the same manner as in Experimental Example 2-3 by using primers of Table 4 below. Meanwhile, a untreated group was used as a control, and a group treated with 50 nM EGF was used as a positive control.

With “Arg (R)-Cys (C)-Cys (C)-Gly (G) [Peptide-1]”, the “phosphorylation of ERF and AKT” value in the assay with ERF and AKT is “induced”. Besides, the “expression of DKK-1” value in the assay on DKK-1 (Dickkopf-1) is recorded as “inhibited”. The “migration of beta-catenin from cytoplasm to a nucleus” value in the assay on beta-catenin is listed as “confirmed”. Besides, the “expression of Ha3-II, Keratin 14, and Keratin 19” value in assay [1] is “increased”. Moreover, in assay [2], the “expression of LEF-1, c-Myc, and/or cyclin D1” value is “increased”. Moreover, the “proliferation of dermal papilla cells” value in assay [3] is listed as “promoted”. In assay [4], the “expression of HOXC13, MSX2, and FOXN1” value was “increased”.
